According to patent EP0388510A1, “Pharmaceutical compositions and their use in the prophylaxis or the treatment of bacterial infectious diseases” (HOECHST AKTIENGESELLSCHAFT, priority 1989, dated 1990):

System: Methicillin-resistente Staphylokokken
Assay: Minimal inhibitory concentration in the agar dilution test, 39 clinical isolates
Type: cell-based
Experimental: Der überraschend gefundene synergistische Effekt einer Kombination von Decaplanin und Cefpirom konnte auch mit 39 klinischen Isolaten (Methicillin-resistente Staphylokokken) gezeigt werden, von denen die meisten eine ausgeprägte Resistenz gegenüber Cefpirom zeigten (MHK > 16 µg/ml). Dazu wurde die minimale Hemmkonzentration im Agarverdünnungstest von Cefpirom, Decaplanin und einer Mischung gleicher Anteile von Cefpirom und Decaplanin bestimmt. Wie Fig. 1 zeigt, ist die antibakterielle Aktivität der Mischung deutlich höher als die jeder Einzelkomponente. Aus Fig. 1 geht hervor, daß die als Beurteilungskriterium üblicherweise herangezogene minimale Hemmkonzentration, bei der 90 % der Stämme gehemmt werden (MHK90%), für die Mischung beider Komponenten mit 0,7 µg/ml am niedrigsten ist. (MHK90% für Decaplanin: 3,5 µg/ml, MHK90% für Cefpirom: 64 µg/ml).

CNC(CC(C)C)C(=O)NC1C(=O)NC(CC(N)=O)C(=O)NC2C(=O)NC3C(=O)NC(C(=O)NC(C(=O)O)c4cc(O)cc(O)c4-c4cc3ccc4O)C(OC3CC(C)(N)C(O)C(C)O3)c3ccc(cc3)Oc3cc2cc(c3OC2OC(CO)C(O)C(O)C2OC2OC(C)C(O)C(O)C2O)Oc2ccc(cc2Cl)C1O (stereo not drawn) [Decaplanin]
MHK90% (minimal inhibitory concentration at which 90 % of the 39 isolates are inhibited, from Fig. 1): 3,5 µg/ml

CO/N=C(\C(=O)N[C@@H]1C(=O)N2C(C(=O)[O-])=C(C[n+]3cccc4c3CCC4)CS[C@H]12)c1csc(N)n1 [Cefpirom]
MIC (read-out: MHK): > 16 µg/mL
MIC90 (read-out: MHK90%): 64 µg/mL
